Reference: ChEMBL document CHEMBL3352037, “Antifungal terpenoids from Hyalis argentea var. latisquama” (2014)
≈ marks a conversion by molar mass, not a printed value. One block for each compound: values may come before it. Calls of active or inactive are those of the source. The rule behind the calls is not given here.

What was measured:
[1] = system: Cryptococcus neoformans; test: Antifungal activity against Cryptococcus neoformans ATCC 32264 by bioautography TLC plate assay based MTT method; format: functional, organism-based
[2] = system: Cryptococcus neoformans; test: Antifungal activity against Cryptococcus neoformans ATCC 32264 assessed as microbial growth inhibition at => 125 ug/mL after 48 hrs broth microdilution method; format: functional
[3] = system: Candida albicans; test: Antifungal activity against Candida albicans ATCC 10231 assessed as microbial growth inhibition at => 125 ug/mL after 48 hrs broth microdilution method; format: functional
[4] = system: Candida albicans; test: Antifungal activity against Candida albicans ATCC 10231 by bioautography TLC plate assay based MTT method; format: functional, organism-based
[5] = system: Candida albicans; test: Antifungal activity against Candida albicans ATCC 10231 assessed as microbial growth inhibition at 15.6 ug/mL after 48 hrs broth microdilution method; format: functional; conditions: ATCC 10231, 48 h, read-out: GI
[6] = system: Cryptococcus neoformans; test: Antifungal activity against Cryptococcus neoformans ATCC 32264 assessed as microbial growth inhibition at 62.5 ug/mL after 48 hrs broth microdilution method; format: functional; conditions: ATCC 32264, 48 h, read-out: GI
[7] = system: Candida albicans; test: Antifungal activity against Candida albicans ATCC 10231 assessed as microbial growth inhibition at 125 ug/mL after 48 hrs broth microdilution method; format: functional; conditions: ATCC 10231, 48 h, read-out: GI
[8] = system: Candida albicans; test: Antifungal activity against Candida albicans ATCC 10231 assessed as microbial growth inhibition at 62.5 ug/mL after 48 hrs broth microdilution method; format: functional; conditions: ATCC 10231, 48 h, read-out: GI
[9] = system: Cryptococcus neoformans; test: Antifungal activity against Cryptococcus neoformans ATCC 32264 assessed as microbial growth inhibition at 31.25 ug/mL after 48 hrs broth microdilution method; format: functional; conditions: ATCC 32264, 48 h, read-out: GI
[10] = system: Cryptococcus neoformans; test: Antifungal activity against Cryptococcus neoformans ATCC 32264 assessed as microbial growth inhibition at 15.6 ug/mL after 48 hrs broth microdilution method; format: functional; conditions: ATCC 32264, 48 h, read-out: GI
[11] = system: Candida albicans; test: Antifungal activity against Candida albicans ATCC 10231 assessed as microbial growth inhibition after 48 hrs broth microdilution method; format: functional, organism-based
[12] = system: Cryptococcus neoformans; test: Antifungal activity against Cryptococcus neoformans ATCC 32264 assessed as microbial growth inhibition after 48 hrs broth microdilution method; format: functional
[13] = system: Cryptococcus neoformans; test: Antifungal activity against Cryptococcus neoformans ATCC 32264 assessed as microbial growth inhibition at 250 ug/mL after 48 hrs broth microdilution method; format: functional, organism-based
[14] = system: Candida albicans; test: Antifungal activity against Candida albicans ATCC 10231 assessed as microbial growth inhibition at 250 ug/mL after 48 hrs broth microdilution method; format: functional, organism-based
[15] = system: Cryptococcus neoformans; test: Antifungal activity against Cryptococcus neoformans ATCC 32264 assessed as microbial growth inhibition at 50 to 300 ug/mL after 48 hrs broth microdilution method; format: functional, organism-based
[16] = system: Candida albicans; test: Antifungal activity against Candida albicans ATCC 10231 assessed as microbial growth inhibition at 50 to 300 ug/mL after 48 hrs broth microdilution method; format: functional, organism-based

Compound: C=C1[C@H]2C[C@H]2[C@]2(C)C=C3OC(=O)C(CO)=C3C[C@@H]12
growth inhibition (GI) [1]: Active
growth inhibition (GI) [2]: 50%
growth inhibition (GI) [3]: 50%
growth inhibition (GI) [4]: Active

Compound: C=C1[C@H]2C[C@H]2[C@]2(C)C=C3OC(=O)C(COC(C)=O)=C3C[C@@H]12
inhibition of growth at 15.6 µg/mL [5]: 50%
inhibition of growth at 62.5 µg/mL [6]: 100%
growth inhibition (GI) [1]: Active
inhibition of growth at 125 µg/mL [7]: 100%
inhibition of growth at 62.5 µg/mL [8]: 80%
inhibition of growth at 31.25 µg/mL [9]: 80%
growth inhibition (GI) [4]: Active
inhibition of growth at 15.6 µg/mL [10]: 50%

MIC ([12]; ATCC 32264, 48 h): 125 µg/mL (≈ 507 µM)
Compound: C=C1[C@@H]2[C@H]3OC(=O)C(=C)[C@@H]3CCC(=C)[C@@H]2C[C@@H]1O [ZALUZANIN C]
growth inhibition (GI) [11]: Active
growth inhibition (GI) [4]: Active

Compound: C=C1[C@H]2C[C@H]2[C@]2(C)[C@@H]3O[C@@]34OC(=O)C(COC(C)=O)=C4C[C@@H]12
growth inhibition (GI) [1]: Active
growth inhibition (GI) [13]: inactive
growth inhibition (GI) [4]: Active
growth inhibition (GI) [14]: inactive

Compound: C=C1[C@H]2C[C@H]2[C@]2(C)C[C@@H]3OC(=O)C(CO)=C3C[C@@H]12
growth inhibition (GI) [15]: inactive
growth inhibition (GI) [16]: inactive

Compound: C=C1[C@@H]2[C@H]3OC(=O)[C@@H](C)[C@@H]3CCC(=C)[C@@H]2C[C@@H]1O
growth inhibition (GI) [11]: Active
growth inhibition (GI) [1]: Active
growth inhibition (GI) [12]: Active
growth inhibition (GI) [4]: Active
